From patent US20150266864A1, “HETEROAROMATIC COMPOUNDS, METHOD FOR PREPARING THE COMPOUNDS, PHARMACEUTICAL COMPOSITIONS, USES AND METHOD FOR TREATING ACUTE AND CHRONIC PAIN” (CRISTÁLIA PRODUTOS QUÍMICOS FARMACÊUTICOS LTDA, priority 2012, published 2015)

Experiments:
[1] = system: Swiss mice; test: Hot plate model, assay for acute pain; format: in vivo; details: ip, 32.25 μmol/kg, plate 52° C., compared to morphine sulfate at the same dose
Source text: The antinociceptive activity (AA) of the present invention selected compounds (C3, C9, C11, C12, C13, C15 and C17) was investigated in hot plate model [Hot Plate Model LE7406, Scientific Inc.] described by Kuraishi et al. [Kuraishi, Y., Harada, Y., Aratani, S., Satoh, M., Takagi, H. Brain Research 1983.273, 245-2523]. This method is valid to evaluate the analgesic activity of substances acting on the central nervous system. Swiss mice weighing 20-25 g were placed on a metal plate heated up to 52° C. The animals were withdrawn from the hot plate at the time they lead their forepaws toward the mouth to lick, being this an indicative of pain second Le Bars et al. [Le Bars, D., Gozariu, M., Cadden, S. W. Animal models of nociception. Pharmacol. Rev. 2001, 53 (4), 597-652]. In this way, it was analyzed how long the animal, treated or not (control) with the analgesic substance, remained on the plate at 52° C.; the longest residence time of an animal on the plate was 35 seconds. This time limit (or cut off) (35 s) was determined by the average of three measurements of latency control values, obtained for each animal multiplied by three, to prevent any kind of tissue injury on the footpad of animals's paw due to long permanence on the heated surface. The protocol consisted in the intraperitoneal (ip) injection of the selected compounds of the present invention at a dose of 32.25 μmol/kg. The antinociceptive activity was evaluated at intervals of 10 minutes until effect completely disappear and, compared to morphine sulfate ([…]) at the same dose of 32.25 μmoles/kg (12.2 mg/kg). The investigated parameter is the latency of reflex to paw withdrawal in response to thermal stimulus. The results were expressed as percentage of AA, which was calculated according to Equation 1 for each experiment.

[2] = system: Swiss-type male mice; test: RotaRod performance test, motor coordination; details: for animal residence time on the rotational cylinder compared to controls: 15 minutes after administration; for Mice residence time on the rotational cylinder: 9 rpm, cut off 180 s, mean ± SEM
Method: The assessment of motor coordination in mice, by the rotarod performance test, was carried out to detect any possible sedative or muscle relaxant effect caused by the compounds of the present invention, previously tested in acute and neuropathic pain models. This test was carried out according to the method of described by Dunham & Miya and animal motor coordination was evaluated using RotaRod apparatus [Dunham M. S. & Miya. R. T. (1957). J. Amer. Pharmac. Assoc. Sci. Edit. 1957, 46, 208-209].
The RotaRod apparatus (Model 412 EFF, Insight Equipements, Brazil) is a device that measures motor coordination and thus evaluates balance alterations in mice. The apparatus consists of an acrylic box splited into four compartments with a rotational cylinder among them. The cylinder rotates at constant speed driven by a motor and regulated to the constant speed mode of 5-37 revolutions per minute (rpm). In this study the speed was set up to 9 rpm.
To remain on the rotational cylinder, the animal needs to move around, so that the motor coordination can be quantified. The four compartments have drop detection system, through the impact, a microprocessor circuit, for timing the permanence of the animal at the compartment, and for counting the number of falls.
The day before the test, Swiss-type male mice (19-25 g) were placed on the rotational cylinder, set up to the constant speed mode of 9 rpm for adaptation and learning. A group of 10 mice were used for each tested compound, and the total period spent on the rotational cylinder (in seconds) was recorded for a period of 180 seconds (cut off time) and it was accept a maximum of three falls for each animal. Motor coordination was assessed at times 0 (before treatment), 15, 30, 60 and 120 minutes after compounds administration at a dose of 32.25 μmol/kg.
All compounds were administered intraperitoneally (ip).
The Student's t-test was also used to compare means between two experimental groups. Differences were considered significant when p<0.05.

[3] = system: rats subjected to SNL; test: Spinal nerve ligation (SNL) L5 model, thermal hyperalgesia; format: in vivo, rat
[4] = system: rats subjected to SNL; test: Spinal nerve ligation (SNL) L5 model, mechanical allodynia (digital Von Frey); format: in vivo, rat; details: after the first day of treatment, p<0.05
[5] = T 15 min after ip administration, 32.25 μmol/kg
[6] = T 30 min after ip administration, 32.25 μmol/kg (diazepam 2 mg/kg)
[7] = T 60 min after ip administration, 32.25 μmol/kg (diazepam 2 mg/kg)
[8] = T 120 min after ip administration, 32.25 μmol/kg (diazepam 2 mg/kg)

Row | SMILES | antinociceptive activity (AA), hot plate [1] | animal residence time on the rotational cylinder compared to controls ([2]; 32.25 μmol/kg) | Mice residence time on the rotational cylinder [2, 5] [s] | Mice residence time on the rotational cylinder [2, 6] [s] | Mice residence time on the rotational cylinder [2, 7] [s] | Mice residence time on the rotational cylinder [2, 8] [s] | melting point | paw withdrawal latency, thermal hyperalgesia ([3]; oral 30 mg/kg, after 7 days of treatment) | paw withdrawal latency, thermal hyperalgesia ([3]; oral 100 mg/kg, after 1 day of treatment) | reversion of the signs of mechanical allodynia ([4]; oral 30 mg/kg) | reversion of the signs of mechanical allodynia ([4]; oral 100 mg/kg)
1 | Cl.OC1(c2ccc(Cl)cc2)CCN(CCc2conc2-c2ccc(F)cc2)CC1 [C15, 4-(4-chlorophenyl)-1-{2-[3-(4-fluorophenyl)-1,2-oxazol-4-yl]ethyl}piperidin-4-ol hydrochloride] | exhibit antinociceptive activity of intensity and kinetics similar to morphine sulfate | equal to the time observed for the negative control, and significantly higher than the time observed for the control amitriptyline hydrochloride | 180.0 | 179.0 | 179.2 | 180.0 | 222 to 226 °C (dec.) | – | – | – | –
2 | CN1CCN(CCc2c[nH]nc2-c2ccc(F)cc2)CC1.Cl.Cl.Cl.O.O [C11, 1-{2-[3-(4-fluorophenyl)-1H-pyrazol-4-yl]ethyl}-4-methylpiperazine trihydrochloride dihydrate] | exhibit antinociceptive activity of intensity and kinetics similar to morphine sulfate | equal to the time observed for the negative control, and significantly higher than the time observed for the control amitriptyline hydrochloride | 180.0 | 177.0 | 178.5 | 176.7 | – | – | – | – | –
3 | Cl.Cl.Fc1ccc(-c2n[nH]cc2CCN2CCCCC2)cc1.O [C3, 1-{2-[3-(4-fluorophenyl)-1H-pyrazol-4-yl]ethyl}piperidine dihydrochloride monohydrate] | exhibit antinociceptive activity of intensity and kinetics similar to morphine sulfate | equal to the time observed for the negative control, and significantly higher than the time observed for the control amitriptyline hydrochloride | 180.0 | 178.2 | 178.7 | 180.0 | – | significantly increased the paw withdrawal latency | significantly increased the paw withdrawal latency | reversion of the signs of mechanical allodynia | reversion of the signs of mechanical allodynia
4 | Cl.Cl.Fc1ccc(-c2n[nH]cc2CCN2CCOCC2)cc1.O [C9, 4-{2-[3-(4-fluorophenyl)-1H-pyrazol-4-yl]ethyl}morpholine dihydrochloride monohydrate] | exhibit antinociceptive activity of intensity and kinetics similar to morphine sulfate | equal to the time observed for the negative control, and significantly higher than the time observed for the control amitriptyline hydrochloride | 180.0 | 180.0 | 180.0 | 175.3 | – | – | – | – | –
5 | CCOC(=O)C1(c2ccccc2)CCN(CCc2conc2-c2ccc(F)cc2)CC1.Cl [C17, Ethyl 1-{2-[3-(4-fluorophenyl)-1,2-oxazol-4-yl]ethyl}-4-phenylpiperidine-4-carboxylate hydrochloride] | exhibit antinociceptive activity of intensity and kinetics similar to morphine sulfate | – | 127.4 | 153.3 | 163.2 | 175.6 | – | – | – | – | –
